The results in this text go back to US12097261B2, “CDK2 degraders and uses thereof” (Kymera Therapeutics, Inc., priority 2021, dated 2024).

As usually defined, the DC50 is the concentration at which degradation of the target reaches its halfway point.

The structures appear in SMILES notation. Bounds are passed on as bounds.

What all share (type): cell-based
Test [1] addresses T1, CDK2 (Homo sapiens, UniProt P24941).
T1 construct: endogenous in cells; host or cells: OVCAR-8
Nature of the test: CDK2 degradation by immunoblotting in OVCAR-8 cells. The settings on record: 24 h.

The target in test [2] is T2, CDK1 (Homo sapiens, UniProt P06493).
T2 construct: endogenous in cells; host or cells: OVCAR-8
As to the kind of experiment: CDK1 degradation by immunoblotting in OVCAR-8 cells. The settings on record: 24 h. Here is the method: CDK2 and CDK1 Degradation by Immunoblotting
Ovarian cancer cell line OVCAR-8 were cultured in 12-well plates in complete growth medium. A serial dilution of each compound was added to individual wells from a 2× stock solution, and cells were cultured for 24 hours. Cells were collected by centrifugation, and cell pellets lysed with addition of chilled RIPA buffer supplemented with protease/phosphatase inhibitors followed by incubation for 20 minutes on ice. Lysates were clarified by centrifugation and 5×SDS loading buffer was added to the supernatant followed by heating to 100° C. for 10 minutes. An aliquot of the samples were separated by SDS-PAGE and transferred to a nitrocellulose membrane. Immunoblotting was performed according to standard procedures using anti-CDK2 primary antibody (Abcam ab32147) at 1:1000 dilution and IRDye 800CW goat anti-Rabbit secondary antibody (LICOR) and imaged using a LICOR Odyssey instrument. Blots were stained with anti-beta-Actin primary antibody (Cell Signaling Technology mAb #4970) for normalization. The normalized CDK2/Actin values were calculated as a percent of DMSO treated cells and plotted to determine the concentration at which 50% of CDK2 signal is decreased (DC50). The determination of CDK1 degradation was determined similarly using anti-CDK1 primary antibody (Abcam ab131450).
(In western blotting, separated proteins are transferred to a membrane and probed.)

The target in test [3] is T3, CCNE1 (Homo sapiens, UniProt P24864+P24941).
T3 construct: endogenous in cells; host or cells: MKN-1
Nature of the test: CCNE1 degradation in MKN-1 cells by immunoblotting. The settings on record: 24 h, by WB, read-out: Cyclin E1 DC50, (MKN-1 by WB). Here is the method:
CCNE1 Degradation in MKN-1 Cells
Gastric cancer cell line MKN-1 were cultured in 6-well plates in complete growth medium. A serial dilution of each compound was added to individual wells from a 2× stock solution, and cells were cultured for 24 hours. Following 24-hr incubation, cells were lysed with addition of chilled RIPA buffer supplemented with protease/phosphatase inhibitors followed by incubation for 20 minutes on ice. Lysates were clarified by centrifugation and 5×SDS loading buffer was added to the supernatant followed by heating to 100° C. for 10 minutes. An aliquot of the samples were separated by SDS-PAGE and transferred to a nitrocellulose membrane. Immunoblotting was performed according to standard procedures using anti-CCNE1 primary antibody (Abcam #ab33911) at 1:1000 dilution and IRDye 800CW goat anti-Rabbit secondary antibody (LICOR) and imaged using a LICOR Odyssey instrument. Blots were stained with anti-beta-Actin primary antibody (Cell Signaling Technology mAb 43700) for normalization. The normalized CCNE1/Actin values were calculated as a percent of DMSO treated cells and plotted to determine the concentration at which 50% of CCNE1 signal is decreased.

T2 sequence (P06493 whole entry): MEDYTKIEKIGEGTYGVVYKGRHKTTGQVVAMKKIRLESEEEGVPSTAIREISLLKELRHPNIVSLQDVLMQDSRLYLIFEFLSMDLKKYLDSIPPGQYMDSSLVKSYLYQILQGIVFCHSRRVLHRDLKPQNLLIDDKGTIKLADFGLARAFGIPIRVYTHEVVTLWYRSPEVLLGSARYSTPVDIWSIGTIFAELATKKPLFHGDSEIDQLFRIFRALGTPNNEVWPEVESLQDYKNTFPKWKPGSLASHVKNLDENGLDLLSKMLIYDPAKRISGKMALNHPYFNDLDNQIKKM

`Cc1cc(S(=O)(=O)NCCO[C@H]2CC[C@H](CN3CCC(c4ccc5c(c4)n(C)c(=O)n5C4CCC(=O)NC4=O)CC3)CC2)ccc1Nc1ncc2cc(Cl)c(=O)n(C3CCCC3)c2n1` (stereo partly drawn) [I-108]: the values for the DC50 in test [1], in test [2] and in test [3] were below 10 nM, 100 to 1000 nM and below 10 nM, respectively.
On to `Cc1cc(S(=O)(=O)NCCO[C@H]2CC[C@H](CN3CCC(c4ccc5c(c4)n(C)c(=O)n5C4CCC(=O)NC4=O)CC3)CC2)ccc1Nc1ncc2ccc(=O)n(C3CCCC3)c2n1` (stereo partly drawn) [I-109], for which the DC50 is below 10 nM in test [1], 100 to 1000 nM in test [2] and below 10 nM in test [3].
For the compound `Cc1cc(S(=O)(=O)NCCO[C@H]2CC[C@H](N(C)CC3CCN(c4ccc5c(c4)n(C)c(=O)n5C4CCC(=O)NC4=O)CC3)CC2)ccc1Nc1ncc2ccc(=O)n(C3CCCC3)c2n1` (stereo partly drawn) [I-117], the DC50 in test [1] is below 10 nM; in test [2], 100 to 1000 nM; in test [3] it was below 10 nM.
